Assay results taken from US20260098030A1, “NEGATIVE ALLOSTERIC MODULATORS OF METABOTROPIC GLUTAMATE RECEPTOR 2” (Vanderbilt University, priority 2022, published 2026).

What follows are compounds tested against T1, rat mGlu2 (Rattus norvegicus, UniProt P31421) (assay: mGlu GIRK cell-based thallium flux assay, rat mGlu2). Conditions: HEK-293 cells co-expressing rat mGlu2 and GIRK, EC80 glutamate.
T1 construct: expressed in transfected cells; host or cells: HEK-293 cells stably co-expressing GIRK channels
T1 sequence (P31421 19-872): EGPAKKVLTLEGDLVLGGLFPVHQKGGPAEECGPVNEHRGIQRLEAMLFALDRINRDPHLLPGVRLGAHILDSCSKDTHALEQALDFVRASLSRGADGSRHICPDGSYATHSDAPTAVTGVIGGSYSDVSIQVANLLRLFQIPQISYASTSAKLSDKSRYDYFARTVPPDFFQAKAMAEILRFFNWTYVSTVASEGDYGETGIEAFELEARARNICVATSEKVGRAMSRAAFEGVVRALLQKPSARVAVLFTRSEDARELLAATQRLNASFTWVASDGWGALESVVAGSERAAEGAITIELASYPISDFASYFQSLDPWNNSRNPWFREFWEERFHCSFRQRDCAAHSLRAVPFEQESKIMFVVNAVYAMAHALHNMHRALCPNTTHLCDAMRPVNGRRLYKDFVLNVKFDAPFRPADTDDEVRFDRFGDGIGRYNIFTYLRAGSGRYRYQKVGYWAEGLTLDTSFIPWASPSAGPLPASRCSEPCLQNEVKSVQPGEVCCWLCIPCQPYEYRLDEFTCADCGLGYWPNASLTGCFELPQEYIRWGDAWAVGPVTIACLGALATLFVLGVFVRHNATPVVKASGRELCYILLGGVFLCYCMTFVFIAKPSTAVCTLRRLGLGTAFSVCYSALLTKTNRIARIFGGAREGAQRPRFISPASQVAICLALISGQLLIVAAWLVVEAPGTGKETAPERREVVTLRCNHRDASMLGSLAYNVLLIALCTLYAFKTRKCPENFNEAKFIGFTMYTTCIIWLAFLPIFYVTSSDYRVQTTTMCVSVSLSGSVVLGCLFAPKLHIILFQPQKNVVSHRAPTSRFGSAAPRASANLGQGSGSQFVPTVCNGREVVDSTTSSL
Experimental: Human embryonic kidney (HEK-293) cell lines stably co-expressing human or rat mGlu2 and G protein-coupled inwardly rectifying potassium (GIRK) channels, or human mGlu3 and GIRK, were used for in vitro evaluation of compound activity in thallium flux assay using a fluorescent thallium indicator dye.
The day before the assay, GIRK cells co-expressing human mGlu3, human or rat mGlu2, as described above, were plated in black-walled, clear-bottomed, amine-coated 384-well plates at a density of 15,000 cells/20 μL/well in the assay medium (glutamine-depleted basal DMEM supplemented with 10% dialyzed FBS, 20 mM HEPES, 1 mM sodium pyruvate). Cells were incubated at 37° C. in the presence of 5% CO2. The next day, assay buffer (Hanks balanced salt solution, 20 mM HEPES, 4.16 mM sodium bicarbonate, pH 7.2) was prepared to dilute compounds and Thallos AM fluorescent dye solution. The 2× Thallos dye solution (final concentration 0.34 μM to the cells) was prepared by mixing the dye stock (2.97 mM in DMSO) to 1:1 with 10% pluronic acid before adding to the assay buffer. Cells were washed with assay buffer using a microplate washer to remove the medium, resulting in 20 μL of buffer remaining in each well. Immediately, 20 μL of 2× Thallos dye solution was added to cells, and incubated for one hour at 25° C. During the cell dye loading incubation period, a 10-point concentration serial dilution of compound was created from a 10 mM DMSO compound stock by performing a 1:3 serial dilution in DMSO using the Bravo liquid handler. The 2× compound plate was generated by transferring 0.24 μL of the diluted compound in each well to a daughter plate using an Echo acoustic liquid handler. This is further diluted in 40 μL assay buffer, resulting in a range from 30 μM to 1.5 nM final concentration in the assay. The agonist plate (5×) was prepared to include EC80 glutamate concentration (a concentration to elicit 80% of a maximally effective glutamate concentration) in thallium buffer (125 mM […], 1 mM magnesium sulfate, 1.8 mM calcium sulfate, 5 mM glucose, 10 mM HEPES, pH 7.2, 12.5 mM thallium sulfate).
After dye-loading, cell plates were washed with assay buffer to remove excess extracellular dye using a microplate washer, resulting in 20 μL of buffer remaining in each well. After a ten-minute equilibration period, cell, compound and agonist plates were loaded into a Hamamatsu μCell kinetic imaging plate reader equipped with liquid handler to monitor fluorescence changes at 480 nm excitation and 540 nm emission settings. Briefly, after collection of baseline fluorescence, 20 μL of compound was added and incubated for two minutes and twenty seconds. This is immediately followed by adding 10 μL of glutamate-thallium buffer to the wells containing compound. The fluorescent signal was monitored an additional 2.5 minutes after the glutamate addition. Multiple reference wells containing no compound received either no glutamate (for a baseline reference), EC80 glutamate, or ECmax glutamate (for normalization to maximum response). Fluorescence was measured throughout the experiment at a frequency of 1 measurement per every 2 seconds before the glutamate addition and a frequency of 1 measurement per every 1 second after the glutamate addition. Each compound concentration series occurred one time in each plate, and replicates from two or three plates were used in each experimental run. Thallium solutions were handled and disposed of according to guidelines from the Vanderbilt University Chemical Safety department.
Data were normalized using a static ratio function (F/F0) by dividing every fluorescent measurement by the initial fluorescent value for the corresponding well. The increase in signal resulting from the glutamate/thallium addition of the second add was measured by determining the slope from 3 seconds to 13 seconds after the addition. […]

Row | SMILES | IC50
1 | CN1CCC=C(c2cc3c(cc2-c2ccc(F)cc2)C(=O)NC3)C1 [Compound 57, 6-(4-fluorophenyl)-5-(1-methyl-1,2,5,6-tetrahydropyridin-3-yl)isoindolin-1-one] | > 10 µM
2 | O=C1NCc2cc(C3CCCNC3)c(-c3ccc(F)cc3)cc21 (stereo not drawn) [Compound 78, 6-(4-fluorophenyl)-5-(piperidin-3-yl)isoindolin-1-one] | > 10 µM
3 | CC1(C)C=C(c2cc3c(cc2-c2ccc(F)cc2)C(=O)NC3)CC(C)(C)N1 [Compound 59, 6-(4-fluorophenyl)-5-(2,2,6,6-tetramethyl-1,2,3,6-tetrahydropyridin-4-yl)isoindolin-1-one] | > 10 µM
4 | O=C1NCc2cc(C3=CCN(Cc4ccccc4)CC3)c(-c3ccc(F)cc3)cc21 [Compound 56, 5-(1-benzyl-1,2,3,6-tetrahydropyridin-4-yl)-6-(4-fluorophenyl)isoindolin-1-one] | > 10 µM
5 | O=C1NCc2cc(-c3ccc(F)nc3F)c(-c3ccc(F)cc3)cc21 [Compound 32, 5-(2,6-difluoropyridin-3-yl)-6-(4-fluorophenyl)isoindolin-1-one] | > 10 µM
6 | CC1(C)CC(c2cc3c(cc2-c2ccc(F)cc2)C(=O)NC3)CC(C)(C)N1 [Compound 75, 6-(4-fluorophenyl)-5-(2,2,6,6-tetramethylpiperidin-4-yl)isoindolin-1-one] | > 10 µM
7 | N#Cc1ccc(-n2cc(-c3cc4c(cc3-c3ccc(F)cc3F)C(=O)NC4)cn2)cc1 [Compound 111, 4-(4-(6-(2,4-difluorophenyl)-1-oxoisoindolin-5-yl)-1H-pyrazol-1-yl)benzonitrile] | > 10 µM
8 | O=C1NCc2cc(C3CCNC3)c(-c3ccc(F)cc3)cc21 (stereo not drawn) [Compound 83, 6-(4-fluorophenyl)-5-(pyrrolidin-3-yl)isoindolin-1-one] | > 10 µM
9 | CC1CC(c2cc3c(cc2-c2ccc(F)cc2)C(=O)NC3)CC(C)N1 (stereo not drawn) [Compound 68, 5-(2,6-dimethylpiperidin-4-yl)-6-(4-fluorophenyl)isoindolin-1-one] | > 10 µM
10 | Cn1cc2cc(-c3cc4c(cc3-c3ccc(F)cc3)C(=O)NC4)cnc2n1 [Compound 16, 6-(4-fluorophenyl)-5-(2-methyl-2H-pyrazolo[3,4-b]pyridin-5-yl)isoindolin-1-one] | > 10 µM
11 | COC1CC=C(c2cc3c(cc2-c2ccc(F)cc2)C(=O)NC3)CC1 (stereo not drawn) [Compound 54, 6-(4-fluorophenyl)-5-(4-methoxycyclohex-1-en-1-yl)isoindolin-1-one] | > 10 µM

These reach a lower IC50. Values come first.

Row | IC50 | SMILES
12 | 7.55 µM | CC(C)c1ncccc1-c1cc2c(cc1-c1ccc(F)cc1)C(=O)NC2 [Compound 42, 6-(4-fluorophenyl)-5-(2-isopropylpyridin-3-yl)isoindolin-1-one]
13 | 2.62 µM | O=C1NCc2cc(C3CCCCC3)c(-c3ccc(F)cc3)cc21 [Compound 63, 5-cyclohexyl-6-(4-fluorophenyl)isoindolin-1-one]
14 | 2.15 µM | O=C1NCc2cc(-c3ccc4scnc4c3)c(-c3ccc(F)cc3F)cc21 [Compound 23, 5-(benzo[d]thiazol-5-yl)-6-(2,4-difluorophenyl)isoindolin-1-one]
15 | 1.93 µM | Cn1cc2c(-c3cc4c(cc3-c3ccc(F)cc3)C(=O)NC4)cccc2n1 [Compound 28, 6-(4-fluorophenyl)-5-(2-methyl-2H-indazol-4-yl)isoindolin-1-one]
16 | 1.42 µM | N#Cc1cc(F)cc(-c2cc3c(cc2-c2ccc(F)cc2F)C(=O)NC3)c1 [Compound 106, 3-(6-(2,4-difluorophenyl)-1-oxoisoindolin-5-yl)-5-fluorobenzonitrile]
17 | 1.24 µM | Cn1cc2cccc(-c3cc4c(cc3-c3ccc(F)cc3)C(=O)NC4)c2n1 [Compound 17, 6-(4-fluorophenyl)-5-(2-methyl-2H-indazol-7-yl)isoindolin-1-one]
18 | 0.161 µM | O=C1NCc2cc(-c3ccc4scnc4c3)c(-c3ccc(F)cc3)cc21 [Compound 13, 5-(benzo[d]thiazol-5-yl)-6-(4-fluorophenyl)isoindolin-1-one]
